Like-named read-outs stand apart in the source and are kept apart here.
Experiments:
[1] = Biodistribution of labeled radioligands in male Sprague-Dawley rats; assay type: in vivo; details: mean ± SD, n = 3
From the text: Appropriately labeled compounds were studied in animals to assess their binding characteristics in the brain. Procedures for these biodistribution studies are as follows. […] The brain regions (cerebellum, hippocampus, striatum, frontal cortex, thalamus and hypothalamus), along with samples of blood and part of the tail, were removed, weighed, and counted in a Packard Cobra II gamma counter. The percent injected dose (% ID) of the decay- and tail-corrected activity in the brain regions and blood were calculated based upon C-11 standards prepared from the injection solution, and the % ID/g were calculated using the tissue weights.

[2] = Experiment 5: plasma clearance of ^11C and ^18F labeled AFM, AFA, AFE in one baboon; assay type: in vivo; details: one adult male baboon, n = 1 to 4 scans
Method: (§1) General scanning methods were as described in Huang et al. (2002). Arterial input function was measured and corrected for metabolites.

[3] = system: SERT; experiment: Experiment 5: PET brain imaging of ^11C and ^18F labeled AFM, AFA, AFE in one baboon; assay type: in vivo; details: one adult male baboon, n = 1 to 4 scans, two-compartment model
Method: as §1
Activity distributed in the brain in accordance to the known density distribution pattern of SERT (Laruelle et al., 1988). […] Data were analyzed with a two-compartment model, using the metabolite-corrected arterial time-activity curve as input function. This analysis provided the regional distribution volumes (VT, mL/g).
The nonspecific distribution volume, measured as the distribution volume of the cerebellum (a region with negligible SERT density) was in a similar range for all tracers (10 to 30 mL/g, Table 16).
The specific to nonspecific partition coefficient, V3″, was calculated as the ratio of VT in the region of interest (ROI) to cerebellum VT minus one. V3″ provides a measure related to receptor parameters as follows: […]

[4] = molecular target: T1, serotonin transporter (SERT) (Rattus norvegicus, UniProt P31652); experiment: In vitro binding affinity for SERT, radioligand [^3H]paroxetine (Table 1); parameters: species or system rat or human (cloned)
T1 construct: membranes prepared from either the rat cortical tissues or cells expressed with cloned-human transporters; from tissue; host or cells: rat cortical tissue membranes (inferred; the alternative is cells expressing cloned human SERT)
T1 sequence (P31652 whole entry): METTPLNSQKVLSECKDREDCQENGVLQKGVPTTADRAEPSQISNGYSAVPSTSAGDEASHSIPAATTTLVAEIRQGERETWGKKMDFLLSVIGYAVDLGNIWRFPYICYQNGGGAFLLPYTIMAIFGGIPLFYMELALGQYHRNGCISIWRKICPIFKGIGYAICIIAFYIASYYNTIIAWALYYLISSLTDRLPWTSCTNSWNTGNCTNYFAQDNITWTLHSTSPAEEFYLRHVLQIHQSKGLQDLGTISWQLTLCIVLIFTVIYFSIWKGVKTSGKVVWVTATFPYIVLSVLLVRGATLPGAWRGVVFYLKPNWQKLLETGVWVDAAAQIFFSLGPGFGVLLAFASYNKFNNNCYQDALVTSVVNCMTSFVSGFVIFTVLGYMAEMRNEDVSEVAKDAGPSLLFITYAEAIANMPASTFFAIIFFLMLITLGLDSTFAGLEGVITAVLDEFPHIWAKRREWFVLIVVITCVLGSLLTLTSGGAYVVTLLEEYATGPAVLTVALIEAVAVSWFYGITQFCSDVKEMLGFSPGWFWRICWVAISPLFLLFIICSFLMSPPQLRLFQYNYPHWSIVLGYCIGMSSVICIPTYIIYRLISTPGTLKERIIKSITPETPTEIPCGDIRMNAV
Method: (§2) Selected compounds were assayed in vitro for their binding affinity for the dopamine transporter (DAT), serotonin transporter (SERT), and norepinephrine transporter (NET) using membranes prepared from either the rat cortical tissues or cells expressed with cloned-human transporters and radioligands. Radioligands used were [^3H]paroxetine (SERT), [^3H]nisoxetine (NET), and [^3H]GBR12935 (DAT).

[5] = molecular target: T2, dopamine transporter (DAT) (Homo sapiens, UniProt Q01959); experiment: In vitro binding affinity for DAT, radioligand [^3H]GBR12935 (Table 1); parameters: species or system rat or human (cloned)
T2 construct: host or cells: either rat cortical tissue or cells expressing the cloned human transporter
T2 sequence (Q01959 whole entry, species assumed): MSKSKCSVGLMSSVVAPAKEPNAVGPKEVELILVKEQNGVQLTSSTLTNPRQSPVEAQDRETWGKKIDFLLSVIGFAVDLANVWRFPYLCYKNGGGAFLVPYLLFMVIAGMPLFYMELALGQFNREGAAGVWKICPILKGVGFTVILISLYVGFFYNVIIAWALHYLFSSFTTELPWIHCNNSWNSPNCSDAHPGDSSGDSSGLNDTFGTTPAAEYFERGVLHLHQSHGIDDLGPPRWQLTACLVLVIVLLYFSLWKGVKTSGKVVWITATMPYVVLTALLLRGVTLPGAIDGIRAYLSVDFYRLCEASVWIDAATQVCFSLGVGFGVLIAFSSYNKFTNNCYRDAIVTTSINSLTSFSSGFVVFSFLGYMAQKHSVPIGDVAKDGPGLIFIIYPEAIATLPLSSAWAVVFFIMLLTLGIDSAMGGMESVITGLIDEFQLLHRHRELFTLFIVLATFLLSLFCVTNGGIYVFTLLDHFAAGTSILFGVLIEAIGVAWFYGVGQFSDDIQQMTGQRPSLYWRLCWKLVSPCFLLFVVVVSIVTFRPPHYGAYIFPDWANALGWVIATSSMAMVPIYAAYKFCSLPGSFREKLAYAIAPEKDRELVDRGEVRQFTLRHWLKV
Method: as §2

[6] = molecular target: T3, norepinephrine transporter (NET) (Homo sapiens, UniProt P23975); experiment: In vitro binding affinity for NET, radioligand [^3H]nisoxetine (Table 1); parameters: species or system rat or human (cloned)
T3 construct: host or cells: either rat cortical tissue or cells expressing the cloned human transporter
T3 sequence (P23975 whole entry, species assumed): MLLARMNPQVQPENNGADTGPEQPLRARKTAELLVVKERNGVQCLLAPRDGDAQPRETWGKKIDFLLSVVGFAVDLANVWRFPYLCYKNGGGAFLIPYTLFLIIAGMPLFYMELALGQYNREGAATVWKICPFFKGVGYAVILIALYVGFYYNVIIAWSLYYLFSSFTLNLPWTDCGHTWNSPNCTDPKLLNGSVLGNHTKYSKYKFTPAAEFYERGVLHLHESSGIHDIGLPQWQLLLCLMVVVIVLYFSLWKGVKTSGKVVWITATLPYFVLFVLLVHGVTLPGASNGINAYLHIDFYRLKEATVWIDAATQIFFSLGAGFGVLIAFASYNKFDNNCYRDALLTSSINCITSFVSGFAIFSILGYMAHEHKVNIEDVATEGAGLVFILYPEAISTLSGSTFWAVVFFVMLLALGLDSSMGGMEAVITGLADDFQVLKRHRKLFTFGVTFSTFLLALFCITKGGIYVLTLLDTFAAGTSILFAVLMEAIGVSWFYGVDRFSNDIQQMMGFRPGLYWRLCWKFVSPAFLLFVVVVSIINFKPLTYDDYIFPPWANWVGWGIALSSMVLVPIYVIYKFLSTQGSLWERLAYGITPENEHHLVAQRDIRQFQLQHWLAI
Method: as §2

CN([11CH3])Cc1ccccc1Sc1ccc(F)cc1N [[^11C]AFA, [^11C]2-[2-(Dimethylaminomethyl)phenylthio]-5-fluorophenylamine]
% ID/g Blood ([1]; 10 min post-injection): 0.26 ± 0.10 % ID/g
% ID/g Cerebellum ([1]; 10 min post-injection): 0.35 ± 0.12 % ID/g
% ID/g Frontal Ctx. ([1]; 10 min post-injection): 0.70 ± 0.25 % ID/g
% ID/g Hippocamp. ([1]; 10 min post-injection): 0.48 ± 0.17 % ID/g
% ID/g Hypothal. ([1]; 10 min post-injection): 0.55 ± 0.18 % ID/g
% ID/g Striatum ([1]; 10 min post-injection): 0.54 ± 0.18 % ID/g
% ID/g Thalamus ([1]; 10 min post-injection): 0.60 ± 0.24 % ID/g
% ID/g Blood ([1]; 30 min post-injection): 0.08 ± 0.01 % ID/g
% ID/g Cerebellum ([1]; 30 min post-injection): 0.14 ± 0.02 % ID/g
% ID/g Frontal Ctx. ([1]; 30 min post-injection): 0.49 ± 0.06 % ID/g
% ID/g Hippocamp. ([1]; 30 min post-injection): 0.34 ± 0.02 % ID/g
% ID/g Hypothal. ([1]; 30 min post-injection): 0.47 ± 0.06 % ID/g
% ID/g Striatum ([1]; 30 min post-injection): 0.38 ± 0.14 % ID/g
% ID/g Thalamus ([1]; 30 min post-injection): 0.44 ± 0.05 % ID/g
% ID/g Blood ([1]; 60 min post-injection): 0.06 ± 0.01 % ID/g
% ID/g Cerebellum ([1]; 60 min post-injection): 0.09 ± 0.02 % ID/g
% ID/g Frontal Ctx. ([1]; 60 min post-injection): 0.29 ± 0.05 % ID/g
% ID/g Hippocamp. ([1]; 60 min post-injection): 0.24 ± 0.03 % ID/g
% ID/g Hypothal. ([1]; 60 min post-injection): 0.42 ± 0.06 % ID/g
% ID/g Striatum ([1]; 60 min post-injection): 0.26 ± 0.04 % ID/g
% ID/g Thalamus ([1]; 60 min post-injection): 0.39 ± 0.04 % ID/g
Clearance [2]: 54 ± 6 L/h
Cerebellum V (nonspecific distribution volume) [3]: 13 ± 3 mL/g

Cc1ccc(Sc2ccccc2CN(C)C)c(N)c1 [MADAM, 2-(2-(Dimethylaminomethyl)phenylthio)-5-methylphenylamine]
Ki [4]: 1.19 nM
Ki [5]: > 10000 nM
Ki [6]: 320 nM

CN(C)Cc1ccccc1Sc1ccc(CC[18F])cc1N [[^18F]AFE, [^18F]2-[2-(Dimethylaminomethyl)phenylthio]-5-(2-fluoroethyl)phenylamine]
% ID/g Blood ([1]; 10 min post-injection): 0.25 ± 0.01 % ID/g
% ID/g Cerebellum ([1]; 10 min post-injection): 0.28 ± 0.02 % ID/g
% ID/g Frontal Ctx. ([1]; 10 min post-injection): 0.62 ± 0.08 % ID/g
% ID/g Hippocamp. ([1]; 10 min post-injection): 0.38 ± 0.03 % ID/g
% ID/g Hypothal. ([1]; 10 min post-injection): 0.51 ± 0.05 % ID/g
% ID/g Striatum ([1]; 10 min post-injection): 0.51 ± 0.05 % ID/g
% ID/g Thalamus ([1]; 10 min post-injection): 0.58 ± 0.08 % ID/g
% ID/g Blood ([1]; 30 min post-injection): 0.13 ± 0.03 % ID/g
% ID/g Cerebellum ([1]; 30 min post-injection): 0.13 ± 0.01 % ID/g
% ID/g Frontal Ctx. ([1]; 30 min post-injection): 0.32 ± 0.01 % ID/g
% ID/g Hippocamp. ([1]; 30 min post-injection): 0.27 ± 0.04 % ID/g
% ID/g Hypothal. ([1]; 30 min post-injection): 0.41 ± 0.03 % ID/g
% ID/g Striatum ([1]; 30 min post-injection): 0.33 ± 0.01 % ID/g
% ID/g Thalamus ([1]; 30 min post-injection): 0.39 ± 0.01 % ID/g
% ID/g Blood ([1]; 60 min post-injection): 0.07 ± 0.02 % ID/g
% ID/g Cerebellum ([1]; 60 min post-injection): 0.06 ± 0.01 % ID/g
% ID/g Frontal Ctx. ([1]; 60 min post-injection): 0.19 ± 0.04 % ID/g
% ID/g Hippocamp. ([1]; 60 min post-injection): 0.17 ± 0.04 % ID/g
% ID/g Hypothal. ([1]; 60 min post-injection): 0.24 ± 0.04 % ID/g
% ID/g Striatum ([1]; 60 min post-injection): 0.21 ± 0.05 % ID/g
% ID/g Thalamus ([1]; 60 min post-injection): 0.27 ± 0.04 % ID/g
% ID/g Blood ([1]; 90 min post-injection): 0.04 ± 0.01 % ID/g
% ID/g Cerebellum ([1]; 90 min post-injection): 0.03 ± 0.01 % ID/g
% ID/g Frontal Ctx. ([1]; 90 min post-injection): 0.08 ± 0.01 % ID/g
% ID/g Hippocamp. ([1]; 90 min post-injection): 0.09 ± 0.01 % ID/g
% ID/g Hypothal. ([1]; 90 min post-injection): 0.14 ± 0.02 % ID/g
% ID/g Striatum ([1]; 90 min post-injection): 0.10 ± 0.02 % ID/g
% ID/g Thalamus ([1]; 90 min post-injection): 0.17 ± 0.02 % ID/g
% ID/g Blood ([1]; 120 min post-injection): 0.02 ± 0.01 % ID/g
% ID/g Cerebellum ([1]; 120 min post-injection): 0.02 ± 0.00 % ID/g
% ID/g Frontal Ctx. ([1]; 120 min post-injection): 0.06 ± 0.00 % ID/g
% ID/g Hippocamp. ([1]; 120 min post-injection): 0.07 ± 0.00 % ID/g
% ID/g Hypothal. ([1]; 120 min post-injection): 0.10 ± 0.01 % ID/g
% ID/g Striatum ([1]; 120 min post-injection): 0.08 ± 0.01 % ID/g
% ID/g Thalamus ([1]; 120 min post-injection): 0.13 ± 0.02 % ID/g
Clearance [2]: 71 L/h
Cerebellum V (nonspecific distribution volume) [3]: 19 mL/g

CN(C)Cc1ccccc1Sc1ccc(F)cc1N [AFA, 2-(2-(Dimethylaminomethyl)phenylthio)-5-fluorophenylamine]
Ki ([4]; read-out: Ki SERT): 1.46 nM
Ki [5]: > 10000 nM
Ki [6]: 142 nM

CN(C)Cc1ccccc1Sc1ccc(CCCF)cc1N [AFP, 2-(2-(Dimethylaminomethyl)phenylthio)-5-(3-fluoropropyl)-phenylamine]
Ki [4]: 3.58 nM
Ki [5]: > 10000 nM
Ki [6]: 505 nM

Cc1ccc(Sc2ccccc2CN(C)[11CH3])c(N)c1 [[^11C]MADAM, [^11C]2-[2-(Dimethylaminomethyl)phenylthio]-5-methylphenylamine]
% ID/g Blood ([1]; 10 min post-injection): 0.61 ± 0.15 % ID/g
% ID/g Cerebellum ([1]; 10 min post-injection): 1.04 ± 0.33 % ID/g
% ID/g Frontal Ctx. ([1]; 10 min post-injection): 2.17 ± 0.78 % ID/g
% ID/g Hippocamp. ([1]; 10 min post-injection): 1.39 ± 0.29 % ID/g
% ID/g Hypothal. ([1]; 10 min post-injection): 1.93 ± 0.72 % ID/g
% ID/g Striatum ([1]; 10 min post-injection): 1.57 ± 0.54 % ID/g
% ID/g Thalamus ([1]; 10 min post-injection): 1.95 ± 0.61 % ID/g
% ID/g Blood ([1]; 30 min post-injection): 0.26 ± 0.07 % ID/g
% ID/g Cerebellum ([1]; 30 min post-injection): 0.55 ± 0.04 % ID/g
% ID/g Frontal Ctx. ([1]; 30 min post-injection): 1.78 ± 0.23 % ID/g
% ID/g Hippocamp. ([1]; 30 min post-injection): 1.14 ± 0.17 % ID/g
% ID/g Hypothal. ([1]; 30 min post-injection): 1.48 ± 0.22 % ID/g
% ID/g Striatum ([1]; 30 min post-injection): 1.41 ± 0.21 % ID/g
% ID/g Thalamus ([1]; 30 min post-injection): 1.66 ± 0.17 % ID/g
% ID/g Blood ([1]; 60 min post-injection): 0.15 ± 0.04 % ID/g
% ID/g Cerebellum ([1]; 60 min post-injection): 0.27 ± 0.01 % ID/g
% ID/g Frontal Ctx. ([1]; 60 min post-injection): 0.89 ± 0.07 % ID/g
% ID/g Hippocamp. ([1]; 60 min post-injection): 0.84 ± 0.27 % ID/g
% ID/g Hypothal. ([1]; 60 min post-injection): 1.39 ± 0.28 % ID/g
% ID/g Striatum ([1]; 60 min post-injection): 0.81 ± 0.15 % ID/g
% ID/g Thalamus ([1]; 60 min post-injection): 1.14 ± 0.18 % ID/g

CN(C)Cc1ccccc1Sc1ccc(CCF)cc1N [AFE, 2-(2-(Dimethylaminomethyl)phenylthio)-5-(2-fluoroethyl)phenylamine]
Ki [4]: 1.88 nM
Ki [5]: > 10000 nM
Ki [6]: 946 nM

Reference: patent publication US20110097274A1, “Carbon-11 and fluorine-18 labeled radioligands for positron emission tomography (PET) imaging for the brain serotonin transporters” (priority 2002, published 2011)
